Results on 18 compounds are retold here after patent US7713937B2, “Synthetic peptide amides and dimeric forms thereof” (Cara Therapeutics, Inc., priority 2006, dated 2010).

pEC50: −log10 of the molar value. Square brackets hold non-standard residues; d marks the D form. Peptide text beside a SMILES is read from it. dOrn = NCCC[C@@H](N)C(=O)O; Inp = O=C(O)C1CCNCC1

The target of experiment [1] is T1, human kappa opioid receptor (hKOR) (Homo sapiens, UniProt P41145).
T1 construct: expressed in transfected cells; host or cells: HEK-293 cells, transient transfection with Fugene6
T1 sequence (P41145 whole entry): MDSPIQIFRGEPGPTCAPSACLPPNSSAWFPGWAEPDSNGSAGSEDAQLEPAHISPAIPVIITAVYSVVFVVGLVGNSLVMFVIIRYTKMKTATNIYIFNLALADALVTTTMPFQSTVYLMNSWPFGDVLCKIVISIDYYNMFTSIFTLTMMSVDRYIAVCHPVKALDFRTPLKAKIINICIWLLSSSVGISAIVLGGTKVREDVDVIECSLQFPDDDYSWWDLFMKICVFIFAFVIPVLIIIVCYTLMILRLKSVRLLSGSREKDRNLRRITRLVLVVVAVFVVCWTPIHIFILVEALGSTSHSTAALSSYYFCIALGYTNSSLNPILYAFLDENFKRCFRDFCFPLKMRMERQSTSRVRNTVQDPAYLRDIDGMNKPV
Put plainly: cell-based. The following applies: for Emax: HEK293, read-out: hKOR Efficacy(%).

Experiment [2] concerns the target T2, mouse kappa opioid receptor (mKOR) (Mus musculus, UniProt P33534).
T2 construct: Stimulation of Endogenous Mouse Kappa-Opioid Receptor in R1.G1 Cells; host or cells: R1.G1 mouse thymoma cells
Put plainly: cell-based. Conditions: for Emax: read-out: mKOR Efficacy(%).

T2 sequence (P33534 whole entry): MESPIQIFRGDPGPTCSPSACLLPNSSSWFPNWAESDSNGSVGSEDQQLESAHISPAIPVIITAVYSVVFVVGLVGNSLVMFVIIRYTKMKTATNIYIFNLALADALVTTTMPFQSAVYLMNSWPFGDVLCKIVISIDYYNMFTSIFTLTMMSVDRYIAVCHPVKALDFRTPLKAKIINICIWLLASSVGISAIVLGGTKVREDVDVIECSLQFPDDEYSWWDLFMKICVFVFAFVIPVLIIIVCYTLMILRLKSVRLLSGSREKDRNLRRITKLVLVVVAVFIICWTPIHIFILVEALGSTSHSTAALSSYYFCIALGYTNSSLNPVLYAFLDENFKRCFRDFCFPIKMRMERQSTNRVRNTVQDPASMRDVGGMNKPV

Take `CC(C)C[C@@H](NC(=O)[C@@H](Cc1ccccc1)NC(=O)[C@H](N)Cc1ccccc1)C(=O)N[C@H](CCCCN)C(=O)NCc1cn2ccccc2n1` [Compound (34), D-Phe-D-Phe-D-Leu-D-Lys-[imidazo[1,2-a]pyridine-2-ylmethyl amide]]: the pEC50 in experiment [1] was 10.68; in experiment [2], 9.45. Besides, the Emax in experiment [1] stood at 101%; in experiment [2] it was 90%.
On to `Cc1cnc(CNC(=O)[C@@H](CCCCN)NC(=O)[C@@H](CC(C)C)NC(=O)[C@@H](Cc2ccccc2)NC(=O)[C@H](N)Cc2ccccc2)cn1` [Compound (35), D-Phe-D-Phe-D-Leu-D-Lys-[(5-methylpyrazin-2-yl)methyl amide]], for which the pEC50 in experiment [1] was 11.19; in experiment [2], 10.44.
With `CC(C)C[C@@H](NC(=O)[C@@H](Cc1ccccc1)NC(=O)[C@H](N)Cc1ccccc1)C(=O)N[C@H](CCCCN)C(=O)N1CCC(n2c(=O)[nH]c3ccccc32)CC1` [Compound (36), D-Phe-D-Phe-D-Leu-D-Lys-[1-(piperidin-4-yl)-1H-benzo[d]imidazol-2(3H)-one amide]], the Emax came to 100% in experiment [1] and 87% in experiment [2].
As to `CC(C)C[C@@H](NC(=O)[C@@H](Cc1ccccc1)NC(=O)[C@H](N)Cc1ccccc1)C(=O)N[C@H](CCCCN)C(=O)N1CCc2[nH]ncc2C1` [Compound (37), D-Phe-D-Phe-D-Leu-D-Lys-[4,5,6,7-tetrahydro-1H-pyrazolo[4,3-c]pyridine amide]], the negative logarithm of the EC50 (pEC50) in experiment [1] is 11.28; in experiment [2] it was 10.63. For the same compound, the Emax was 100% in experiment [1] and 90% in experiment [2].
In the case of `CC(C)C[C@@H](NC(=O)[C@@H](Cc1ccccc1)NC(=O)[C@H](N)Cc1ccccc1)C(=O)N[C@H](CCCN)C(=O)NCCN1CCN(CC(=O)O)CC1` [Compound (38), D-Phe-D-Phe-D-Leu-D-Orn-[4-(2-aminoethyl)-1-carboxymethyl-piperazine]-OH], the Emax in experiment [1] is 102%; in experiment [2] it was 98%. For the same compound, the pEC50 in experiment [2] is 9.39.
For `CC(C)C[C@@H](NC(=O)[C@@H](Cc1ccccc1)NC(=O)[C@H](N)Cc1ccccc1)C(=O)N[C@H](CCCN)C(=O)N1CCC(CC(=O)O)CC1` [Compound (39), D-Phe-D-Phe-D-Leu-D-Orn-[4-carboxymethyl-piperidine]-OH], in experiment [1], the pEC50 is 9.92 and the Emax came out at 99%. In experiment [2], the pEC50 was 10.10 and the Emax is 97%.
In the same order, the values of `CC(C)C[C@@H](NC(=O)[C@@H](Cc1ccccc1)NC(=O)[C@H](N)Cc1ccccc1)C(=O)N[C@H](CCCN)C(=O)N1CCC(N)(C(=O)O)CC1` [Compound (43), D-Phe-D-Phe-D-Leu-D-Orn-[ω(4-aminopiperidine-4-carboxylic acid)]-OH] are 9.85, 107%, 10.39 and 100%.
`CC(C)C[C@@H](NC(=O)[C@@H](Cc1ccccc1)NC(=O)[C@H](N)Cc1ccccc1)C(=O)N[C@H](CCCN)C(=O)N1CCC(CC(N)C(=O)O)CC1` (stereo partly drawn) [Compound (44), D-Phe-D-Phe-D-Leu-D-Orn-[ω(D/L-2-amino-3-(4-N-piperidinyl)propionic acid)]-OH]: the negative-log EC50 (pEC50) was 9.89 in experiment [1] and 10.55 in experiment [2]. The Emax in experiment [1] is 104%; in experiment [2], 102%.
On to `CC(C)C[C@@H](NC(=O)[C@@H](Cc1ccccc1)NC(=O)[C@H](N)Cc1ccccc1)C(=O)N[C@H](CCCN)C(=O)N1CCNC(C(=O)O)C1` (stereo partly drawn) [Compound (45), D-Phe-D-Phe-D-Leu-D-Orn-[ω(D/L-4-piperazine-2-carboxylic acid)]-OH], for which, in experiment [1], the negative logarithm of the EC50 (pEC50) was 9.82 and the Emax turned out to be 93%. In addition, in experiment [2], the negative-log EC50 (pEC50) was 9.71 and the Emax stood at 102%.
Take `CC(C)C[C@@H](NC(=O)[C@@H](Cc1ccccc1)NC(=O)[C@H](N)Cc1ccccc1)C(=O)N[C@H](CCCN)C(=O)N1CCC(C(=O)O)CC1` [Compound (46), D-Phe-D-Phe-D-Leu-D-Orn-[Isonipecotic acid]-OH] (H-[dF][dF][dL][dOrn][Inp]-OH): the negative-log EC50 (pEC50) in experiment [1] is 9.55; in experiment [2] it was 10.06. The Emax in experiment [1] was found to be 128%; in experiment [2], 92%.
Turning to `CC(C)C[C@@H](NC(=O)[C@@H](Cc1ccccc1)NC(=O)[C@H](N)Cc1ccccc1)C(=O)N[C@H](CCCN)C(=O)N1CCC(N2CCC[C@H]2C(=O)O)CC1` [Compound (47), D-Phe-D-Phe-D-Leu-D-Orn-[N-(4-piperidinyl)-L-proline]-OH], in experiment [1], the negative-log EC50 (pEC50) was 9.77 and the Emax came out at 92%. In experiment [2], the pEC50 was 10.07 and the Emax was found to be 99%.
The like results for `CC(C)C[C@@H](NC(=O)[C@@H](Cc1ccccc1)NC(=O)[C@H](N)Cc1ccccc1)C(=O)N[C@H](CCCN)C(=O)N1CCC(CCCC(=O)O)CC1` [Compound (48), D-Phe-D-Phe-D-Leu-D-Orn-[4-(4-piperidinyl)-butanoic acid]-OH] were, in that order, 9.59, 97%, 10.04 and 100%.
The like results for `CC(C)C[C@@H](NC(=O)[C@@H](Cc1ccccc1)NC(=O)[C@H](N)Cc1ccccc1)C(=O)N[C@H](CCCN)C(=O)NCCN1CCN(CC(N)=O)CC1` [Compound (49), D-Phe-D-Phe-D-Leu-D-Orn-[4-(2-aminoethyl)-1-carboxymethyl-piperazine]-NH2] were, in that order, 9.66, 96%, 9.94 and 96%.
In experiment [1], `CC(C)C[C@@H](NC(=O)[C@@H](Cc1ccccc1)NC(=O)[C@H](N)Cc1ccccc1)C(=O)N[C@H](CCCN)C(=O)N1CCC(N2CCC[C@H]2C(N)=O)CC1` [Compound (50), D-Phe-D-Phe-D-Leu-D-Orn-[N-(4-piperidinyl)-L-proline]-NH2] showed a pEC50 of 9.72. In experiment [2], the pEC50 was 10.66 and the Emax was 96%.
For `CCN1CCCN(C(=O)[C@@H](CCCN)NC(=O)[C@@H](CC(C)C)NC(=O)[C@@H](Cc2ccccc2)NC(=O)[C@H](N)Cc2ccccc2)CC1` [Compound (55), D-Phe-D-Phe-D-Leu-D-Orn-[4-ethylhomopiperazine amide]], in experiment [1], the pEC50 is 9.85 and the Emax amounted to 93%. In experiment [2], the negative-log EC50 (pEC50) was 10.31 and the Emax turned out to be 99%.
Compound `CC(C)C[C@@H](NC(=O)[C@@H](Cc1ccccc1)NC(=O)[C@H](N)Cc1ccccc1)C(=O)N[C@H](CCCN)C(=O)N1CCCNCC1` [Compound (56), D-Phe-D-Phe-D-Leu-D-Orn-[homopiperazine amide]] had a negative-log EC50 (pEC50) in experiment [1] of 9.66. Besides, in experiment [2], the negative-log EC50 (pEC50) was 10.10 and the Emax worked out at 100%.
Consider `CNCCC[C@@H](NC(=O)[C@@H](CC(C)C)NC(=O)[C@@H](Cc1ccccc1)NC(=O)[C@H](N)Cc1ccccc1)C(=O)N1CCCN(C(=N)N)CC1` [Compound (57), D-Phe-D-Phe-D-Leu-(δ-Me)D-Orn-[4-amidinohomopiperazine amide]], for which, in experiment [1], the pEC50 is 10.05 and the Emax was found to be 101%. In experiment [2], the negative-log EC50 (pEC50) was 10.11 and the Emax was determined as 97%.
`CC(C)C[C@@H](NC(=O)[C@@H](Cc1ccccc1)NC(=O)[C@H](N)Cc1ccccc1)C(=O)N[C@H](CCCNC(C)C)C(=O)N1CCC(N)(C(=O)O)CC1` [Compound (58), D-Phe-D-Phe-D-Leu-(δ-iPr)D-Orn-[ω(4-aminopiperidine-4-carboxylic acid)]-OH] showed a pEC50 in experiment [1] of 9.92. In experiment [2], the pEC50 was 9.71 and the Emax was 92%.
